Literature values in patent US10363268B2, “Proton-binding polymers for oral administration” (Tricida, Inc., priority 2013, dated 2019).

Tested on: adult patients with CKD

## O=C([O-])O.[Na+] [sodium bicarbonate, Sodium bicarbonate]
CKD patients, 2 years
  patients experiencing rapid progression (rapid decline of CrCl >3 ml/min per 1.73 m^2/yr): 9%
CKD patients, 2 years, ESRD = CrCl<10 ml/min
  patients who developed ESRD: 6.5%
CKD patients, oral sodium bicarbonate for 2 years, average dose 1.82 g/day
  decline in CrCl: 1.88 ml/min per 1.73 m^2
Versus control group
  relative risk of ESRD: 0.13
  relative risk of rapid progression: 0.15
